From patent US20140357512A1, “HISTONE DEACETYLASE (HDAC) BIOMARKERS IN MULTIPLE MYELOMA” (priority 2013, published 2014)

System: human myeloma cell line MM.1S
Test: SILAC acetylated-lysine peptide profiling, HDAC inhibitor vs DMSO (light/heavy ratio)
Format: cell-based
Source text: An embodiment of the invention comprises utilizing the SILAC method in order to quantitate changes in protein expression between two or more populations of cells. The SILAC method is a technique based on mass spectrometry that detects differences in protein abundance among samples using non-radioactive isotopic labeling. The SILAC method is known in the art, and described in detail in Ong et al., “Stable Isotope Labeling by Amino Acids in Cell Culture, SILAC, as a Simple and Accurate Approach to Expression Proteomics”, Molecular & Cellular Proteomics, vol. 1, pp. 376-386 (2002), which is incorporated herein by reference in its entirety.
Briefly, the SILAC method involves growing two populations of cells in cell culture. The first population of cells is grown in growth media containing normal amino acids (“normal media”). The second population of cells is grown in media lacking a standard essential amino acid (such as lysine), but is then supplemented with a non-radioactive, isotopically labeled form of that essential amino acid (such as lysine labeled with ^13C atoms, rather than normal ^12C atoms), which is called “heavy media”. When the two populations of cells are each growing in the medium, they incorporate the amino acids into all of their proteins. The growth of cells maintained in the heavy media is no different from that in normal media. All peptides containing the heavy amino acids are heavier than their normal counterparts. The cells from each of the two populations of cells are lysed. The lysates from each of the two cell populations are then combined. The combined cell lysates are then analyzed by mass spectrometry. Pairs of chemically identical peptides of different stable isotope composition can be differentiated in a mass spectrometer due to their difference in mass. The ratio of peak intensities in the mass spectrum for such peptide pairs reflects the abundance ratio for the two proteins.
This example describes SILAC studies that were performed to compare the effects of three different HDAC inhibitors (Compound A, Compound B, and tubastatin A) to a control on a human multiple myeloma cell line. The HDAC inhibitors were also compared amongst themselves to determine differences in their effects.
A human myeloma cell line MM.1S was grown using either ^12C (light) or ^13C (heavy) lysine containing culture medium. The “heavy” cells were treated with DMSO as the control, and the “light” cells were treated with a single HDAC inhibitor at 37° C. for 6 hours. The heavy and light cells were lysed, and the lysates were mixed in 1:1 ratio and digested with the protease trypsin. The acetylated lysine containing peptides (due to the action of the HDAC inhibitor) in the digested peptide pool were captured by a non-specific anti-acetylated lysine antibody cocktail (the antibodies identify both light and heavy acetylated peptides), and subjected to mass spectrometry analysis in order to identify thousands of individual peptides.
Thousands of peptides were identified in pairs (^12C and ^13C) due to their known mass differences. The amino acid sequence and quantitative ratio (Light/Heavy) of a given peptide in two differentially treated cell lysates were then determined and annotated with their possible protein (gene) sources.
As stated above, three HDAC inhibitors (Compound A, Compound B, and Tubastatin A) were used. Thus, the SILAC method was performed three times, with a different HDAC inhibitor compared to a control each time. Accordingly, there are three pairs of quantitative data in the table below, i.e., Compound A:DMSO, Compound B:DMSO, and Tubastatin A:DMSO. A cut-off of 1.30 fold of change (increase or decrease) was then used to determine “changed” or “+” in the table, and any peptides with a fold of change less than 1.3 fold were determined to be “unchanged” or “0” in the table. Those peptides that were not identified were marked as “NA” in the table. […]

O=C(NO)c1cnc(NC2(c3cccc(F)c3)CCCCC2)nc1 [Compound B, 2-((1-(3-fluorophenyl)cyclohexyl)amino)-N-hydroxypyrimidine-5-carboxamide]
light to heavy ratio (L/H ratio) of acetylated peptide, log 2 scale (NK(ac)[…] (SEQ ID NO: 237), Vesicle-associated membrane protein 8 [47], VAMP8): 0.00 | light to heavy ratio (L/H ratio) of acetylated peptide, log 2 scale (NLDK(ac)[…] (SEQ ID NO: 159), Aspartate aminotransferase mitochondrial [94], GOT2): 0.00 | L/H ratio of acetylated peptide (NLK(ac)NEITK (SEQ ID NO: 380), Isoform 1 of Coatomer subunit alpha [441], COPA): 0.40 log 2 | L/H ratio of acetylated peptide (NLPFSVENK(ac)WSLLAK (SEQ ID NO: 382), Cytochrome c oxidase subunit 7C mitochondrial [34], COX7C): −0.87 log 2 | L/H ratio of acetylated peptide ADKDYHFK(ac)[…] (SEQ ID NO: 61) (NPM1 [32], log 2 scale, drug vs DMSO): 0.00 | L/H ratio of acetylated peptide GVTQFGNK(ac)[…] (SEQ ID NO: 18) (NUDT21 [23], log 2 scale, drug vs DMSO): 0.50 | L/H ratio of acetylated peptide (NVQQTVSAK(ac)GPPEK(ac)R (SEQ ID NO: 416), Mediator of RNA polymerase II transcription subunit 6 [243:248], MED6): 0.49 log 2 | L/H ratio of acetylated peptide (NVYK(ac)FELDTSER (SEQ ID NO: 444), Dolichyl-diphosphooligosaccharide--protein glycosyltransferase subunit 2 [460], RPN2): 0.54 log 2 | light to heavy ratio (L/H ratio) of acetylated peptide FCLSK(ac)PGVYK (SEQ ID NO: 345) (Nodal modulator 1 [630], NOMO3, NOMO1, drug:DMSO): 0.59 log 2 | light to heavy ratio (L/H ratio) of acetylated peptide […](ac)R (SEQ ID NO: 532) (Nucleosome assembly protein 1-like 1 [116], gene NAP1L1, inhibitor:DMSO): 0.00 log 2 | L/H ratio of acetylated peptide PSHLTNK(ac)FEDK (SEQ ID NO: 65) (PDIA3 [214], log 2 scale, drug vs DMSO): 0.00 | L/H ratio of acetylated peptide GEK(ac)FVMQEEFSR (SEQ ID NO: 64) (PDIA3 [335], log 2 scale, drug vs DMSO): 0.00 | L/H ratio of acetylated peptide SLLGK(ac)DVLFLK (SEQ ID NO: 67) (PGK1 [91], log 2 scale, drug vs DMSO): 0.00 | L/H ratio of acetylated peptide SIYGEK(ac)FEDENFILK (SEQ ID NO: 68) (PPIA [82], log 2 scale, drug vs DMSO): 0.00 | L/H ratio of acetylated peptide VIFGLFGK(ac)TVPK (SEQ ID NO: 70) (PPIB [67], log 2 scale, drug vs DMSO): 0.00 | L/H ratio of acetylated peptide TVPK(ac)[…] (SEQ ID NO: 69) (PPIB [71], log 2 scale, drug vs DMSO): 0.00 | L/H ratio of acetylated peptide VIK(ac)[…] (SEQ ID NO: 71) (PPIB [98], log 2 scale, drug vs DMSO): 0.00 | L/H ratio of acetylated peptide IYGFYDECK(ac)R (SEQ ID NO: 72) (PPP1CC [141], log 2 scale, drug vs DMSO): 0.00 | light to heavy ratio (L/H ratio) of acetylated peptide TAWLDGK(ac)HVVFGK (SEQ ID NO: 592) (Peptidyl-prolyl cis-trans isomerase B [165], gene PPIB, inhibitor:DMSO): 0.00 log 2 | light to heavy ratio (L/H ratio) of acetylated peptide FPDENFK(ac)LK (SEQ ID NO: 347) (Peptidyl-prolyl cis-trans isomerase C [123], PPIC, drug:DMSO): −1.00 log 2 | light to heavy ratio (L/H ratio) of acetylated peptide HVVFGK(ac)VK (SEQ ID NO: 576) (Peptidylprolyl isomerase A (Cyclophilin A) (PPIA) pseudogene [141], gene PPIAP26, inhibitor:DMSO): 0.00 log 2 | light to heavy ratio (L/H ratio) of acetylated peptide LAK(ac)YFFNK (SEQ ID NO: 604) (Periodic tryptophan protein 2 homolog [279], gene PWP2, inhibitor:DMSO): 0.00 log 2 | light to heavy ratio (L/H ratio) of acetylated peptide […](ac)DELKK (SEQ ID NO: 346) (Poly [ADP-ribose] polymerase 1 [249], PARP1, drug:DMSO): 0.83 log 2 | light to heavy ratio (L/H ratio) of acetylated peptide FVVEK(ac)AEQQK (SEQ ID NO: 263) (Prohibitin [202], PHB, drug:DMSO): 0.00 log 2 | light to heavy ratio (L/H ratio) of acetylated peptide FEYK(ac)YSFK (SEQ ID NO: 340) (Protein ERGIC-53 [49], LMAN1, drug:DMSO): −0.52 log 2 | light to heavy ratio (L/H ratio) of acetylated peptide HFAFK(ac)[…] (SEQ ID NO: 554) (Protein FAM3C [72], gene FAM3C, inhibitor:DMSO): 0.00 log 2 | light to heavy ratio (L/H ratio) of acetylated peptide GYPTIK(ac)FFR (SEQ ID NO: 541) (Protein disulfide-isomerase [103], gene P4HB, inhibitor:DMSO): 0.00 log 2 | light to heavy ratio (L/H ratio) of acetylated peptide THILLFLPK(ac)SVSDYDGK (SEQ ID NO: 297) (Protein disulfide-isomerase [263], P4HB, drug:DMSO): 0.00 log 2 | light to heavy ratio (L/H ratio) of acetylated peptide VLVGK(ac)[…] (SEQ ID NO: 303) (Protein disulfide-isomerase [375], P4HB, drug:DMSO): 0.00 log 2 | light to heavy ratio (L/H ratio) of acetylated peptide […](ac)K (SEQ ID NO: 286) (Protein disulfide-isomerase [385], P4HB, drug:DMSO): 0.00 log 2 | light to heavy ratio (L/H ratio), log 2 scale, acetylated peptide VYK(ac)EMYK (SEQ ID NO: 777) (Putative annexin A2-like protein [148], gene ANXA2P2, drug:DMSO): 0.00 | light to heavy ratio (L/H ratio), log 2 scale, acetylated peptide SVPHLQK(ac)VFDR (SEQ ID NO: 776) (Putative annexin A2-like protein [227], gene ANXA2P2, drug:DMSO): 0.00
